From patent US12091425B2 (AMGEN INC., priority 2016, dated 2024)

What was measured:
[1] = molecular target: T1, Mcl-1/Bim interaction, recombinant human Mcl-1 (171-327) (Homo sapiens, UniProt Q07820); assay: Cell free Mcl-1: Bim Affinity Assay (Mcl-1 HTRF); format: binding; conditions: cell free Mcl-1:Bim TR-FRET, recombinant human Mcl-1 (171-327)
T1 construct: made in house
In short: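 Read-out is time-resolved FRET after overnight incubation, using a biotin-labelled peptide from human Bim (51-76) as the binding partner; IC50 was derived from competition curves.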

[2] = tested on: OPM-2 human multiple myeloma cell line; assay: Cell Viability Assay (OPM-2 10 FBS); format: cell-based; conditions: OPM-2 cells, 16 h, CellTiter-Glo
In short: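 Plated at 3000 cells/well in 10% FBS complete medium, the cells received a serial compound dilution series and incubated 16 h at 37 °C with 5% CO2. CellTiter-Glo was then added; IC50 values were fitted with a logistic 4-parameter model.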

T1 sequence (Q07820 171-327): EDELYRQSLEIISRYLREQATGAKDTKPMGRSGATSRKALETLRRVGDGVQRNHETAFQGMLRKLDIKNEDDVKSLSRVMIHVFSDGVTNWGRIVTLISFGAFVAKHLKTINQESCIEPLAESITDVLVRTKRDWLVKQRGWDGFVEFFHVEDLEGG

IC50 ([2]; Homo sapiens, OPM-2, 16 h) | Structure (SMILES) | IC50 [1] | IC50 [2]
 | COCC[C@H]1C[C@H](C)/C=C/[C@H](O)[C@@H]2CC[C@H]2CN2C[C@@]3(CCCc4cc(Cl)ccc43)COc3ccc(cc32)C(=O)NS1(=O)=O (single isomer, unassigned) [Example 479] | 5.37 nM | 8120 nM
 | CC(C)C[C@@H]1C[C@@H](C)/C=C/[C@H](O)[C@@H]2CC[C@H]2CN2C[C@@]3(CCCc4cc(Cl)ccc43)COc3ccc(cc32)C(=O)NS1(=O)=O (single isomer, unassigned) [Example 480] | 0.394 nM | 1080 nM
7640 nM | CC(C)CC1CC(C)C=CC(O)C2CCC2CN2CC3(CCCc4cc(Cl)ccc43)COc3ccc(cc32)C(=O)NS1(=O)=O (single isomer, unassigned) [Example 482] | 7.52 nM | 
 | COCC[C@@H]1C[C@@H](C)/C=C/[C@H](OC)[C@@H]2CC[C@H]2CN2C[C@@]3(CCCc4cc(Cl)ccc43)COc3ccc(cc32)C(=O)NS1(=O)=O (single isomer, unassigned) [Example 484] | 0.331 nM | 412 nM
 | COCC[C@@H]1C[C@H](C)/C=C/[C@H](OC)[C@@H]2CC[C@H]2CN2C[C@@]3(CCCc4cc(Cl)ccc43)COc3ccc(cc32)C(=O)NS1(=O)=O (single isomer, unassigned) [Example 485] | 0.471 nM | 558 nM
 | CO[C@H]1/C=C/[C@H](O)[C@@H]2CC[C@H]2CN2C[C@@]3(CCCc4cc(Cl)ccc43)COc3ccc(cc32)C(=O)NS(=O)(=O)[C@H](C)C1 (single isomer, unassigned) [Example 487] | 1.05 nM | 5800 nM
 | CO[C@H]1/C=C/[C@H](O)[C@@H]2CC[C@H]2CN2C[C@@]3(CCCc4cc(Cl)ccc43)COc3ccc(cc32)C(=O)NS(=O)(=O)[C@@H](C)C1 (single isomer, unassigned) [Example 488] | 5.21 nM | 12900 nM
 | CO[C@@H]1/C=C/[C@H](O)[C@@H]2CC[C@H]2CN2C[C@@]3(CCCc4cc(Cl)ccc43)COc3ccc(cc32)C(=O)NS(=O)(=O)[C@H](C)C1 (single isomer, unassigned) [Example 489] | 0.666 nM | 1220 nM
 | CO[C@@H]1/C=C/[C@H](O)[C@@H]2CC[C@H]2CN2C[C@@]3(CCCc4cc(Cl)ccc43)COc3ccc(cc32)C(=O)NS(=O)(=O)[C@@H](C)C1 (single isomer, unassigned) [Example 490] | 2.09 nM | 7960 nM
 | C[C@H]1/C=C/[C@H](O)[C@@H]2CC[C@H]2CN2C[C@@]3(CCCc4cc(Cl)ccc43)COc3ccc(cc32)C(=O)NS(=O)(=O)CC1 (single isomer, unassigned) [Example 491] | 0.774 nM | 3480 nM
 | C[C@H]1/C=C/[C@@H](O)[C@@H]2CC[C@H]2CN2C[C@@]3(CCCc4cc(Cl)ccc43)COc3ccc(cc32)C(=O)NS(=O)(=O)CC1(C)C (single isomer, unassigned) [Example 494] | 8.81 nM | 3680 nM
 | CO[C@H](C)C[C@H]1CC/C=C/[C@H](O)[C@@H]2CC[C@H]2CN2C[C@@]3(CCCc4cc(Cl)ccc43)COc3ccc(cc32)C(=O)NS1(=O)=O (single isomer, unassigned) [Example 508] | 6.02 nM | 2470 nM
 | CO[C@H](C)C[C@H]1CC/C=C/[C@H](O)[C@@H]2CC[C@H]2CN2C[C@@]3(CCCc4cc(Cl)ccc43)COc3ccc(cc32)C(=O)NS1(=O)=O (single isomer, unassigned) [Example 514] | 0.391 nM | 165 nM
 | C[C@@H]1[C@@H](C)C/C=C/[C@H](OC[C@@H](C)O)[C@@H]2CC[C@H]2CN2C[C@@]3(CCCc4cc(Cl)ccc43)COc3ccc(cc32)C(=O)NS1(=O)=O (single isomer, unassigned) [Example 527] | 0.217 nM | 64.7 nM
 | C[C@@H]1[C@@H](C)C/C=C/[C@H](OC[C@@H](C)O)[C@@H]2CC[C@H]2CN2C[C@@]3(CCCc4cc(Cl)ccc43)COc3ccc(cc32)C(=O)NS1(=O)=O (single isomer, unassigned) [Example 528] | 0.253 nM | 69.6 nM
 | CO[C@H](C)CC1[C@@H](C)C/C=C/[C@H](O)[C@@H]2CC[C@H]2CN2C[C@@]3(CCCc4cc(Cl)ccc43)COc3ccc(cc32)C(=O)NS1(=O)=O (single isomer, unassigned) [Example 529] | 0.97 nM | 754 nM
162 nM | CO[C@H](C)C[C@@H]1[C@@H](C)C/C=C/[C@H](OC)[C@@H]2CC[C@H]2CN2C[C@@]3(CCCc4cc(Cl)ccc43)COc3ccc(cc32)C(=O)NS1(=O)=O (single isomer, unassigned) [Example 535] | 0.389 nM | 
 | CO[C@H](C)C[C@@H]1[C@@H](C)C/C=C/[C@H](O)[C@@H]2CC[C@H]2CN2C[C@@]3(CCCc4cc(Cl)ccc43)COc3ccc(cc32)C(=O)NS1(=O)=O (single isomer, unassigned) [Example 540] | 0.236 nM | 94.1 nM

IC50 ([2]; Homo sapiens, OPM-2, 16 h) | Structure (SMILES) | IC50 [1] | IC50 [2]
 | CO[C@H]1/C=C\CC[C@@H](C[C@@H](C)O)S(=O)(=O)NC(=O)c2ccc3c(c2)N(C[C@@H]2CC[C@H]21)C[C@@]1(CCCc2cc(Cl)ccc21)CO3 (single isomer, unassigned) [Example 543] | 0.535 nM | 699 nM
 | C[C@@H](O)C[C@@H]1CC/C=C/[C@H](O)[C@@H]2CC[C@H]2CN2C[C@@]3(CCCc4cc(Cl)ccc43)COc3ccc(cc32)C(=O)NS1(=O)=O (single isomer, unassigned) [Example 544] | 0.193 nM | 1520 nM
 | C[C@H](O)C[C@@H]1CC/C=C/[C@H](O)[C@@H]2CC[C@H]2CN2C[C@@]3(CCCc4cc(Cl)ccc43)COc3ccc(cc32)C(=O)NS1(=O)=O (single isomer, unassigned) [Example 546] | 0.28 nM | 854 nM
 | C[C@H](O)C[C@@H]1CC/C=C\[C@H](O)[C@@H]2CC[C@H]2CN2C[C@@]3(CCCc4cc(Cl)ccc43)COc3ccc(cc32)C(=O)NS1(=O)=O (single isomer, unassigned) [Example 547] | 0.239 nM | 2220 nM
 | CO[C@H]1/C=C/CC[C@@H](C[C@@H](C)O)S(=O)(=O)NC(=O)c2ccc3c(c2)N(C[C@@H]2CC[C@H]21)C[C@@]1(CCCc2cc(Cl)ccc21)CO3 (single isomer, unassigned) [Example 548] | 0.275 nM | 478 nM
 | CO[C@H](C)C[C@@H]1CC/C=C/[C@H](OC)[C@@H]2CC[C@H]2CN2C[C@@]3(CCCc4cc(Cl)ccc43)COc3ccc(cc32)C(=O)NS1(=O)=O (single isomer, unassigned) [Example 549] | 0.554 nM | 285 nM
7290 nM | C[C@@H](O)C[C@@H]1CC/C=C\[C@H](O)[C@@H]2CC[C@H]2CN2C[C@@]3(CCCc4cc(Cl)ccc43)COc3ccc(cc32)C(=O)NS1(=O)=O (single isomer, unassigned) [Example 550] | 0.582 nM | 
2510 nM | COC(C)CC1CCC=CC(OC)C2CCC2CN2CC3(CCCc4cc(Cl)ccc43)COc3ccc(cc32)C(=O)NS1(=O)=O (single isomer, unassigned) [Example 552] | 0.481 nM | 
 | C[C@@H]1[C@@H](C)C/C=C/C[C@H](O)[C@@H]2CC[C@H]2CN2C[C@@]3(CCCc4cc(Cl)ccc43)COc3ccc(cc32)C(=O)NS1(=O)=O (single isomer, unassigned) [Example 555] | 4.77 nM | 2610 nM
 | C[C@@H]1[C@@H](C)CCCC[C@H](O)[C@@H]2CC[C@H]2CN2C[C@@]3(CCCc4cc(Cl)ccc43)COc3ccc(cc32)C(=O)NS1(=O)=O (single isomer, unassigned) [Example 556] | 1.65 nM | 781 nM
 | C[C@H]1C/C=C/C[C@H](O)[C@@H]2CC[C@H]2CN2C[C@@]3(CCCc4cc(Cl)ccc43)COc3ccc(cc32)C(=O)NS(=O)(=O)[C@H]1C (single isomer, unassigned) [Example 557] | 1.08 nM | 1040 nM
891 nM | CC(C)(O)CC1CCC=CC(O)C2CCC2CN2CC3(CCCc4cc(Cl)ccc43)COc3ccc(cc32)C(=O)NS1(=O)=O (single isomer, unassigned) [Example 558] | 0.284 nM | 
 | CC(C)(O)C[C@@H]1CC/C=C/[C@H](O)[C@@H]2CC[C@H]2CN2C[C@@]3(CCCc4cc(Cl)ccc43)COc3ccc(cc32)C(=O)NS1(=O)=O (single isomer, unassigned) [Example 559] | 0.598 nM | 4420 nM
 | COC(=O)CC[C@]1(C)CC/C=C/[C@H](O)[C@@H]2CC[C@H]2CN2C[C@@]3(CCCc4cc(Cl)ccc43)COc3ccc(cc32)C(=O)NS1(=O)=O (single isomer, unassigned) [Example 561] | 3.58 nM | 8470 nM
 | COC(=O)CC[C@]1(C)CC/C=C\[C@H](O)[C@@H]2CC[C@H]2CN2C[C@@]3(CCCc4cc(Cl)ccc43)COc3ccc(cc32)C(=O)NS1(=O)=O (single isomer, unassigned) [Example 562] | 1.12 nM | 986 nM
 | COC(=O)CC[C@@]1(C)CC/C=C\[C@H](O)[C@@H]2CC[C@H]2CN2C[C@@]3(CCCc4cc(Cl)ccc43)COc3ccc(cc32)C(=O)NS1(=O)=O (single isomer, unassigned) [Example 563] | 2.69 nM | 4500 nM
 | Cc1nnc(C[C@@H]2CC/C=C/[C@H](O)[C@@H]3CC[C@H]3CN3C[C@@]4(CCCc5cc(Cl)ccc54)COc4ccc(cc43)C(=O)NS2(=O)=O)o1 (single isomer, unassigned) [Example 564] | 0.308 nM | 3040 nM
 | Cc1nnc(C[C@H]2CC/C=C/[C@H](O)[C@@H]3CC[C@H]3CN3C[C@@]4(CCCc5cc(Cl)ccc54)COc4ccc(cc43)C(=O)NS2(=O)=O)o1 (single isomer, unassigned) [Example 565] | 0.61 nM | 12600 nM
